# *1 amine or outer side, *2 acyl side, *3 side chain or, on linkers, in order; H or OH if unused. Where a SMILES comes first, the peptide text is derived from it. Bridges are numbered along the chain shown (N, C = ends). [ ]: non-standard residue; d: D form. hPhe(3,5-F2-4-CF3) = N[C@@H](CCc1cc(F)c(C(F)(F)F)c(F)c1)C(=O)O; NPrPhe(4-CF3) = CCCN[C@@H](Cc1ccc(C(F)(F)F)cc1)C(=O)O; NMeGly(cPent) = CN[C@H](C(=O)O)C1CCCC1; X9 = C[C@@](N[*:1])(C(=O)[*:2])C1CC1; X13 = CCC[C@](C)(N[*:1])C(=O)[*:2]; αMeCha = C[C@](N)(CC1CCCCC1)C(=O)O; αMeI = CC[C@H](C)[C@](C)(N)C(=O)O; αMeF = C[C@](N)(Cc1ccccc1)C(=O)O; NMeD = CN[C@@H](CC(=O)O)C(=O)O; NMeL = CN[C@@H](CC(C)C)C(=O)O; αMeL = CC(C)C[C@](C)(N)C(=O)O; αMeV = CC(C)[C@](C)(N)C(=O)O; αMeS = C[C@](N)(CO)C(=O)O; Sar = CNCC(=O)O
# Key:
# [1] = target: GDP-bound NRAS wild-type protein (Homo sapiens, UniProt P01111); assay: Binding to NRAS by surface plasmon resonance (SPR), Single Cycle Kinetics; conditions: KD ratio NRAS/KRAS, SPR
# Sequence of GDP-bound NRAS wild-type protein (P01111 whole entry): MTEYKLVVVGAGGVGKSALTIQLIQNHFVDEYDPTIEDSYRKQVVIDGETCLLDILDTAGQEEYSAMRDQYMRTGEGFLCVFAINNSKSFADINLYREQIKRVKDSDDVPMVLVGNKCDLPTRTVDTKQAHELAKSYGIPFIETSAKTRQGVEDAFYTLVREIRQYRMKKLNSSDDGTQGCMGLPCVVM
# [2] = target: GDP-bound HRAS wild-type protein (Homo sapiens, UniProt P01112); assay: Binding to HRAS by surface plasmon resonance (SPR), Single Cycle Kinetics; conditions: KD ratio HRAS/KRAS, SPR
# Sequence of GDP-bound HRAS wild-type protein (P01112 whole entry): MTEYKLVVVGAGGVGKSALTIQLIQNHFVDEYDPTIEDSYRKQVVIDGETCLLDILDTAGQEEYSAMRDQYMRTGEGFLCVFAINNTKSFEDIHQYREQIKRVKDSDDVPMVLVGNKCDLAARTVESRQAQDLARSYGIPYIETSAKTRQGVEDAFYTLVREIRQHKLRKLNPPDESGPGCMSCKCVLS
SMILES,NRAS/KRAS (ratio of KD value with respect to GDP-bound NRAS wild-type protein to KD value with respect to KRAS) [1],HRAS/KRAS (ratio of KD value with respect to GDP-bound HRAS wild-type protein to KD value with respect to KRAS) [2]
CCO[C@@H]1C[C@H]2C(=O)NC3(CCC3)C(=O)N(C)[C@@H](C3CCCC3)C(=O)N(C)[C@H](C(=O)N(C)C)CC(=O)N(C)[C@@H](C)C(=O)N[C@@H]([C@H](C)CC)C(=O)N(C)CC(=O)N(C)[C@H]3CCCCCN(C3=O)[C@@H](Cc3ccc(C(F)(F)F)cc3)C(=O)N(C)CC(=O)N[C@@H](CCc3cc(F)c(C(F)(F)F)c(F)c3)C(=O)N2C1 [PP0729],B (a compound having 3 or more and less than 10 is denoted as B),B (a compound having 3 or more and less than 10 is denoted as B)
CCO[C@@H]1C[C@H]2C(=O)NC3(CCC3)C(=O)N(C)[C@@H](C3CCCC3)C(=O)N(C)[C@H](C(=O)N(C)C)CC(=O)N(C)[C@@H](C)C(=O)N[C@@H]([C@H](C)CC)C(=O)N(C)CC(=O)N(C)[C@H]3CCCCN(C3=O)[C@@H](Cc3ccc(C(F)(F)F)cc3)C(=O)N(C)CC(=O)N[C@@H](CCc3cc(F)c(C(F)(F)F)c(F)c3)C(=O)N2C1 [PP0730],C (A compound having a KD ratio of 0.1 or more and less than 3 is denoted as C),C (A compound having a KD ratio of 0.1 or more and less than 3 is denoted as C)
CC[C@H](C)[C@@H]1NC(=O)[C@H](CC)N(C)C(=O)C[C@@H](C(=O)N(C)C)N(C)C(=O)[C@H](C2CCCC2)N(C)C(=O)C2(CCC2)NC(=O)[C@@H]2C[C@H](N3CCC(F)(F)CC3)CN2C(=O)[C@H](CCc2cc(F)c(C(F)(F)F)c(F)c2)NC(=O)CN(C)C(=O)[C@H](Cc2ccc(C(F)(F)F)cc2)N2CCCCC[C@@H](C2=O)N(C)C(=O)CN(C)C1=O [PP0731],B (a compound having 3 or more and less than 10 is denoted as B),B (a compound having 3 or more and less than 10 is denoted as B)
CC[C@H](C)[C@@H]1NC(=O)[C@H](CC)N(C)C(=O)C[C@@H](C(=O)N(C)C)N(C)C(=O)[C@H](C2CCCC2)N(C)C(=O)C2(CCC2)NC(=O)[C@@H]2C[C@H](N3CCC(F)(F)CC3)CN2C(=O)[C@H](CCc2cc(F)c(C(F)(F)F)c(F)c2)NC(=O)CN(C)C(=O)[C@H](Cc2ccc(C(F)(F)F)cc2)N2CCCC[C@@H](C2=O)N(C)C(=O)CN(C)C1=O [PP0732],C (A compound having a KD ratio of 0.1 or more and less than 3 is denoted as C),B (a compound having 3 or more and less than 10 is denoted as B)
CC[C@H](C)[C@@H]1NC(=O)[C@H](CC)N(C)C(=O)C[C@@H](C(=O)N(C)C)N(CC)C(=O)[C@H](C2CCCC2)N(C)C(=O)C2(CCC2)NC(=O)[C@@H]2C[C@@H](N3CCC(F)(F)CC3)CN2C(=O)[C@H](CCc2cc(F)c(C(F)(F)F)c(F)c2)NC(=O)CN(C)C(=O)[C@H](Cc2ccc(C(F)(F)F)cc2)N2CCCC[C@@H](C2=O)N(C)C(=O)CN(C)C1=O [PP0733],B (a compound having 3 or more and less than 10 is denoted as B),B (a compound having 3 or more and less than 10 is denoted as B)
"CCCN1C(=O)CN(C)C(=O)CN(C)C(=O)[C@H]([C@@H](C)CC)NC(=O)[C@H](CC(C)C)N(C)C(=O)C[C@@H](C(=O)N(C)C)N(C)C(=O)[C@H](C2CCCC2)N(C)C(=O)[C@](C)(C2CC2)NC(=O)[C@@H]2CCCN2C(=O)[C@H](CCc2cc(F)c(C(F)(F)F)c(F)c2)NC(=O)CN(C)C(=O)[C@@H]1Cc1ccc(C(F)(F)F)cc1 [PP0734] ([NMeL]I[Sar][Sar][NPrPhe(4-CF3)][Sar][hPhe(3,5-F2-4-CF3)]P[X9][NMeGly(cPent)][NMeD]-NMe2; lactam N-11)",B (a compound having 3 or more and less than 10 is denoted as B),C (A compound having a KD ratio of 0.1 or more and less than 3 is denoted as C)
"CCCN1C(=O)CN(C)C(=O)CN(C)C(=O)[C@H]([C@@H](C)CC)NC(=O)[C@H](CC(C)C)N(C)C(=O)C[C@@H](C(=O)N(C)C)N(C)C(=O)[C@H](C2CCCC2)N(C)C(=O)[C@](C)(C(C)C)NC(=O)[C@@H]2CCCN2C(=O)[C@H](CCc2cc(F)c(C(F)(F)F)c(F)c2)NC(=O)CN(C)C(=O)[C@@H]1Cc1ccc(C(F)(F)F)cc1 [PP0735] ([NMeL]I[Sar][Sar][NPrPhe(4-CF3)][Sar][hPhe(3,5-F2-4-CF3)]P[αMeV][NMeGly(cPent)][NMeD]-NMe2; lactam N-11)",B (a compound having 3 or more and less than 10 is denoted as B),C (A compound having a KD ratio of 0.1 or more and less than 3 is denoted as C)
"CCCN1C(=O)CN(C)C(=O)CN(C)C(=O)[C@H]([C@@H](C)CC)NC(=O)[C@H](CC(C)C)N(C)C(=O)C[C@@H](C(=O)N(C)C)N(C)C(=O)[C@H](C2CCCC2)N(C)C(=O)[C@](C)([C@@H](C)CC)NC(=O)[C@@H]2CCCN2C(=O)[C@H](CCc2cc(F)c(C(F)(F)F)c(F)c2)NC(=O)CN(C)C(=O)[C@@H]1Cc1ccc(C(F)(F)F)cc1 [PP0736] ([NMeL]I[Sar][Sar][NPrPhe(4-CF3)][Sar][hPhe(3,5-F2-4-CF3)]P[αMeI][NMeGly(cPent)][NMeD]-NMe2; lactam N-11)",B (a compound having 3 or more and less than 10 is denoted as B),C (A compound having a KD ratio of 0.1 or more and less than 3 is denoted as C)
"CCCN1C(=O)CN(C)C(=O)CN(C)C(=O)[C@H]([C@@H](C)CC)NC(=O)[C@H](CC(C)C)N(C)C(=O)C[C@@H](C(=O)N(C)C)N(C)C(=O)[C@H](C2CCCC2)N(C)C(=O)[C@](C)(CCC)NC(=O)[C@@H]2CCCN2C(=O)[C@H](CCc2cc(F)c(C(F)(F)F)c(F)c2)NC(=O)CN(C)C(=O)[C@@H]1Cc1ccc(C(F)(F)F)cc1 [PP0737] ([NMeL]I[Sar][Sar][NPrPhe(4-CF3)][Sar][hPhe(3,5-F2-4-CF3)]P[X13][NMeGly(cPent)][NMeD]-NMe2; lactam N-11)",B (a compound having 3 or more and less than 10 is denoted as B),C (A compound having a KD ratio of 0.1 or more and less than 3 is denoted as C)
"CCCN1C(=O)CN(C)C(=O)CN(C)C(=O)[C@H]([C@@H](C)CC)NC(=O)[C@H](CC(C)C)N(C)C(=O)C[C@@H](C(=O)N(C)C)N(C)C(=O)[C@H](C2CCCC2)N(C)C(=O)[C@](C)(CC(C)C)NC(=O)[C@@H]2CCCN2C(=O)[C@H](CCc2cc(F)c(C(F)(F)F)c(F)c2)NC(=O)CN(C)C(=O)[C@@H]1Cc1ccc(C(F)(F)F)cc1 [PP0738] ([NMeL]I[Sar][Sar][NPrPhe(4-CF3)][Sar][hPhe(3,5-F2-4-CF3)]P[αMeL][NMeGly(cPent)][NMeD]-NMe2; lactam N-11)",B (a compound having 3 or more and less than 10 is denoted as B),B (a compound having 3 or more and less than 10 is denoted as B)
"CCCN1C(=O)CN(C)C(=O)CN(C)C(=O)[C@H]([C@@H](C)CC)NC(=O)[C@H](CC(C)C)N(C)C(=O)C[C@@H](C(=O)N(C)C)N(C)C(=O)[C@H](C2CCCC2)N(C)C(=O)[C@](C)(CC2CCCCC2)NC(=O)[C@@H]2CCCN2C(=O)[C@H](CCc2cc(F)c(C(F)(F)F)c(F)c2)NC(=O)CN(C)C(=O)[C@@H]1Cc1ccc(C(F)(F)F)cc1 [PP0739] ([NMeL]I[Sar][Sar][NPrPhe(4-CF3)][Sar][hPhe(3,5-F2-4-CF3)]P[αMeCha][NMeGly(cPent)][NMeD]-NMe2; lactam N-11)",B (a compound having 3 or more and less than 10 is denoted as B),C (A compound having a KD ratio of 0.1 or more and less than 3 is denoted as C)
"CCCN1C(=O)CN(C)C(=O)CN(C)C(=O)[C@H]([C@@H](C)CC)NC(=O)[C@H](CC(C)C)N(C)C(=O)C[C@@H](C(=O)N(C)C)N(C)C(=O)[C@H](C2CCCC2)N(C)C(=O)[C@](C)(Cc2ccccc2)NC(=O)[C@@H]2CCCN2C(=O)[C@H](CCc2cc(F)c(C(F)(F)F)c(F)c2)NC(=O)CN(C)C(=O)[C@@H]1Cc1ccc(C(F)(F)F)cc1 [PP0740] ([NMeL]I[Sar][Sar][NPrPhe(4-CF3)][Sar][hPhe(3,5-F2-4-CF3)]P[αMeF][NMeGly(cPent)][NMeD]-NMe2; lactam N-11)",B (a compound having 3 or more and less than 10 is denoted as B),C (A compound having a KD ratio of 0.1 or more and less than 3 is denoted as C)
"CCCN1C(=O)CN(C)C(=O)CN(C)C(=O)[C@H]([C@@H](C)CC)NC(=O)[C@H](CC(C)C)N(C)C(=O)C[C@@H](C(=O)N(C)C)N(C)C(=O)[C@H](C2CCCC2)N(C)C(=O)[C@](C)(COC)NC(=O)[C@@H]2CCCN2C(=O)[C@H](CCc2cc(F)c(C(F)(F)F)c(F)c2)NC(=O)CN(C)C(=O)[C@@H]1Cc1ccc(C(F)(F)F)cc1 [PP0741] ([NMeL]I[Sar][Sar][NPrPhe(4-CF3)][Sar][hPhe(3,5-F2-4-CF3)]P[αMeS](Me)[NMeGly(cPent)][NMeD]-NMe2; lactam N-11)",B (a compound having 3 or more and less than 10 is denoted as B),B (a compound having 3 or more and less than 10 is denoted as B)

# Reference: patent publication US20250230193A1, “CYCLIC COMPOUND HAVING SELECTIVE KRAS INHIBITORY EFFECT ON HRAS AND NRAS” (CHUGAI SEIYAKU KABUSHIKI KAISHA, priority 2022, published 2025)
